Experimental data taken from patent US11266604B2 (ALAYA (SHANGHAI) BIOSCIENCE CO., LTD, priority 2015, dated 2022).
“Also recorded” adds a separate entry of the source.

Tests used:
H. pylori = assay: Antibacterial activity of nanoparticles versus free fatty acid in aqueous system (PBS); format: cell-based, Helicobacter pylori; settings: same concentration (0.3% w/v)
Source text: (§1) The present inventors further tested the antibacterial activity of the nanoparticles of the present invention and free fatty acids in an aqueous system.

Propionibacterium acnes = assay: as above; format: cell-based
Source text: as §1

| Structure (SMILES) | bactericidal activity against H. pylori in aqueous system (H. pylori) | bactericidal effect on Propionibacterium acnes in aqueous system (Propionibacterium acnes) |
| --- | --- | --- |
| CCCC/C=C\CCCCCCCC(=O)O [free myristoleic acid, myristoleic acid] | does not exhibit activities against H. pylori; also recorded: did not show bactericidal activity |  |
| CCCCCCCCCCCC(=O)O [free lauric acid, lauric acid] |  | almost no bactericidal effect |
